ChEMBL document CHEMBL3044672, “N9- and N7-(Chloromethyl Phenymethyl)Chloropurine Derivatives from , '-Dichloroxylenes: Synthesis and Anticancer Activity” (2005)

Tests used:
Format in all cases: functional
A498 = test: Cytotoxicity against Homo sapiens (human) A498 cells after 48 hr by sulforhodamine B assay; settings: A498, 48 h
OVCAR-8 = test: Cytotoxicity against Homo sapiens (human) OVCAR8 cells after 48 hr by sulforhodamine B assay; settings: OVCAR-8, 48 h
OVCAR-5 = test: Cytotoxicity against Homo sapiens (human) OVCAR5 cells after 48 hr by sulforhodamine B assay; settings: OVCAR-5, 48 h
OVCAR-4 = test: Cytotoxicity against Homo sapiens (human) OVCAR4 cells after 48 hr by sulforhodamine B assay; settings: OVCAR-4, 48 h
IGROV-1 = test: Cytotoxicity against Homo sapiens (human) IGROV1 cells after 48 hr by sulforhodamine B assay; settings: IGROV-1, 48 h
OVCAR-3 = test: Cytotoxicity against Homo sapiens (human) OVCAR3 cells after 48 hr by sulforhodamine B assay; settings: OVCAR-3, 48 h
UACC-257 = test: Cytotoxicity against Homo sapiens (human) UACC257 cells after 48 hr by sulforhodamine B assay; settings: UACC-257, 48 h
SK-MEL-5 = test: Cytotoxicity against Homo sapiens (human) SK-MEL-5 cells after 48 hr by sulforhodamine B assay; settings: SK-MEL-5, 48 h
SK-MEL-2 = test: Cytotoxicity against Homo sapiens (human) SK-MEL-2 cells after 48 hr by sulforhodamine B assay; settings: SK-MEL-2, 48 h
LOX IMVI = test: Cytotoxicity against Homo sapiens (human) LOXIMVI cells after 48 hr by sulforhodamine B assay
M14 = test: Cytotoxicity against Homo sapiens (human) M14 cells after 48 hr by sulforhodamine B assay; settings: M14, 48 h
SNB-75 = test: Cytotoxicity against Homo sapiens (human) SNB75 cells after 48 hr by sulforhodamine B assay; settings: SNB-75, 48 h
SNB-19 = test: Cytotoxicity against Homo sapiens (human) SNB19 cells after 48 hr by sulforhodamine B assay; settings: SNB-19, 48 h
SF-539 = test: Cytotoxicity against Homo sapiens (human) SF539 cells after 48 hr by sulforhodamine B assay; settings: SF-539, 48 h
DU-145 = test: Cytotoxicity against Homo sapiens (human) DU145 cells after 48 hr by sulforhodamine B assay; settings: DU-145, 48 h
TK-10 = test: Cytotoxicity against Homo sapiens (human) TK10 cells after 48 hr by sulforhodamine B assay; settings: TK-10, 48 h
CAKI-1 = test: Cytotoxicity against Homo sapiens (human) Caki1 cells after 48 hr by sulforhodamine B assay; settings: CAKI-1, 48 h
SF-295 = test: Cytotoxicity against Homo sapiens (human) SF295 cells after 48 hr by sulforhodamine B assay; settings: SF-295, 48 h
SW-620 = test: Cytotoxicity against Homo sapiens (human) SW620 cells after 48 hr by sulforhodamine B assay; settings: SW-620, 48 h
HT-29 = test: Cytotoxicity against Homo sapiens (human) HT-29 cells after 48 hr by sulforhodamine B assay; settings: HT-29, 48 h
HCT-116 = test: Cytotoxicity against Homo sapiens (human) HCT116 cells after 48 hr by sulforhodamine B assay; settings: HCT-116, 48 h
HCC 2998 = test: Cytotoxicity against Homo sapiens (human) HCC2998 cells after 48 hr by sulforhodamine B assay; settings: HCC 2998, 48 h
EKVX = test: Cytotoxicity against Homo sapiens (human) EKVX cells after 48 hr by sulforhodamine B assay
A549 = test: Cytotoxicity against Homo sapiens (human) A549 cells after 48 hr by sulforhodamine B assay; settings: A549, 48 h
RPMI-8226 = test: Cytotoxicity against Homo sapiens (human) RPMI8226 cells after 48 hr by sulforhodamine B assay; settings: RPMI-8226, 48 h
K562 = test: Cytotoxicity against Homo sapiens (human) K562 cells after 48 hr by sulforhodamine B assay; settings: K562, 48 h
MCF7 = test: Cytotoxicity against Homo sapiens (human) MCF7 cells assessed as cell growth at 10^-4 M after 48 hr by Alamar blue assay; settings: MCF7, 48 h, read-out: Activity
[1] = read-out: LC50 (the source's name)

`ClCc1ccccc1Cn1cnc2c(Cl)ncnc21` was tested, and the GI50 (A498) was 17.4 µM, the LC50 (lethal concentration, 50% cell kill) (A498) was 58.9 µM and the TGI (A498) was 32.4 µM. It also gave a GI50 (OVCAR-8) of 2.24 µM, an LC50 (concentration killing 50% of cells) (OVCAR-8) of 20.4 µM and a TGI (OVCAR-8) of 5.24 µM. The GI50 (OVCAR-5) was 2.45 µM, the TGI (OVCAR-5) was 6.6 µM and the CC50 (OVCAR-5; [1]) was 25.7 µM. It also gave a GI50 (OVCAR-4) of 3.38 µM, an LC50 (concentration killing 50% of cells) (OVCAR-4) of 45.7 µM and a TGI (OVCAR-4) of 12.3 µM. For the same molecule, the GI50 (IGROV-1) was 3.16 µM, the LC50 (IGROV-1) was 55 µM and the TGI (IGROV-1) was 8.91 µM. For the same molecule, the GI50 (OVCAR-3) was 1.41 µM, the LC50 (OVCAR-3) was 8.91 µM and the TGI (OVCAR-3) was 3.54 µM. It also gave a GI50 (UACC-257) of 10.7 µM, an LC50 (concentration killing 50% of cells) (UACC-257) of 66.1 µM and a TGI (UACC-257) of 26.3 µM. The GI50 (SK-MEL-5) was 1.41 µM, the LC50 (SK-MEL-5) was 5.88 µM and the TGI (SK-MEL-5) was 2.88 µM. The GI50 (SK-MEL-2) was 2.75 µM, the LC50 (concentration killing 50% of cells) (SK-MEL-2) was > 100 µM and the TGI (SK-MEL-2) was 18.2 µM. The GI50 (LOX IMVI) was 2.13 µM, the LC50 (LOX IMVI) was > 100 µM and the TGI (LOX IMVI) was 5.24 µM. For the same molecule, the GI50 (M14) was 1.95 µM, the LC50 (M14) was 7.24 µM and the TGI (M14) was 3.71 µM. It also gave a GI50 (SNB-75) of 2.88 µM, a TGI (SNB-75) of 11 µM and a CC50 (SNB-75; [1]) of 39.8 µM. For the same molecule, the GI50 (SNB-19) was 5.37 µM, the LC50 (SNB-19) was > 100 µM and the TGI (SNB-19) was > 100 µM. The GI50 (SF-539) was 10.7 µM, the LC50 (concentration killing 50% of cells) (SF-539) was 55 µM and the TGI (SF-539) was 24 µM. For the same molecule, the GI50 (DU-145) was 5.62 µM, the LC50 (DU-145) was > 100 µM and the TGI (DU-145) was 34.7 µM. The GI50 (TK-10) was 22.9 µM, the TGI (TK-10) was 46.8 µM and the CC50 (TK-10; [1]) was 95.5 µM. The GI50 (CAKI-1) was 1.82 µM, the TGI (CAKI-1) was 4.17 µM and the CC50 (CAKI-1; [1]) was 9.33 µM. The GI50 (SF-295) was 10.5 µM, the TGI (SF-295) was 23.4 µM and the CC50 (SF-295; [1]) was 51.3 µM. For the same molecule, the GI50 (SW-620) was 1.77 µM, the TGI (SW-620) was 5.01 µM and the CC50 (SW-620; [1]) was 26.3 µM. For the same molecule, the GI50 (HT-29) was 3.54 µM, the TGI (HT-29) was > 100 µM and the CC50 (HT-29; [1]) was > 100 µM. For the same molecule, the GI50 (HCT-116) was 1.9 µM, the TGI (HCT-116) was 3.71 µM and the CC50 (HCT-116; [1]) was 7.08 µM. It also gave a GI50 (HCC 2998) of 1.66 µM, a TGI (HCC 2998) of 3.54 µM and a CC50 (HCC 2998; [1]) of 7.41 µM. The GI50 (EKVX) was 3.09 µM, the TGI (EKVX) was 11 µM and the CC50 (EKVX; [1]) was 37.1 µM. For the same molecule, the GI50 (A549) was 7.76 µM, the TGI (A549) was 25.7 µM and the CC50 (A549; [1]) was 75.9 µM. For the same molecule, the GI50 (RPMI-8226) was 14.1 µM, the TGI (RPMI-8226) was 40.7 µM and the CC50 (RPMI-8226; [1]) was > 100 µM. For the same molecule, the GI50 (K562) was 1.2 µM, the TGI (K562) was 5.12 µM and the CC50 (K562; [1]) was > 100 µM. For the same molecule, the growth at 100 µM (MCF7) was 43%.
